Source: PubChem BioAssay AID1963869 (Molecular Pharmacology Branch, DTP, NCI, 2024)
pIC50: −log10 of the molar value.

Tested on: KRAS patient-derived spheroids with HUVEC/MSC, viability
Assay: Anticancer human tumor 323965-272-R-J2-PDC patient-derived pancreatic carcinoma cell line growth inhibition [KRAS2]
Settings: for pIC50: curve of first compound; for viability, T/C: stronger effect = lower value
Procedure, shortened: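 KRAS-mutant tumor cells were grown as spheroids with HUVEC endothelial cells and human MSCs as stroma. Targeted agents were tested alone and with KRAS pathway inhibitors. Doses started at or near clinical Cmax, or 10 microM, descending half-log.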

[1] = second compound 0.1 µM, first compound 0.000316 µM
[2] = second compound 0.1 µM, first compound 0.001 µM
[3] = second compound 0.1 µM, first compound 0.00316 µM
[4] = second compound 0.1 µM, first compound 0.01 µM
[5] = second compound 0.1 µM, first compound 0.0316 µM
[6] = second compound 0.316 µM, first compound 0.000316 µM
[7] = second compound 0.316 µM, first compound 0.001 µM
[8] = second compound 0.316 µM, first compound 0.00316 µM
[9] = second compound 0.316 µM, first compound 0.01 µM
[10] = second compound 0.316 µM, first compound 0.0316 µM
[11] = second compound 1 µM, first compound 0.000316 µM
[12] = second compound 1 µM, first compound 0.001 µM
[13] = second compound 1 µM, first compound 0.00316 µM
[14] = second compound 1 µM, first compound 0.01 µM
[15] = second compound 1 µM, first compound 0.0316 µM
[16] = second compound 3.16 µM, first compound 0.000316 µM
[17] = second compound 3.16 µM, first compound 0.001 µM
[18] = second compound 3.16 µM, first compound 0.00316 µM
[19] = second compound 3.16 µM, first compound 0.01 µM
[20] = second compound 3.16 µM, first compound 0.0316 µM
[21] = second compound 10 µM, first compound 0.000316 µM
[22] = second compound 10 µM, first compound 0.001 µM
[23] = second compound 10 µM, first compound 0.00316 µM
[24] = second compound 10 µM, first compound 0.01 µM
[25] = second compound 10 µM, first compound 0.0316 µM
[26] = second compound 0.1 µM, first compound 0.1 µM
[27] = second compound 0.316 µM, first compound 0.1 µM
[28] = second compound 1 µM, first compound 0.1 µM
[29] = second compound 3.16 µM, first compound 0.1 µM
[30] = second compound 10 µM, first compound 0.1 µM
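Further: spheroids exposed to agents for 7 days.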
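Wherever viability, T/C is given: 100% = DMSO vehicle control viability.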

Compound `CC(=O)Nc1cccc(-n2c(=O)n(C3CC3)c(=O)c3c(Nc4ccc(I)cc4F)n(C)c(=O)c(C)c32)c1` + CC1OCC2(CCN(c3cnc(Sc4ccnc(N)c4Cl)c(N)n3)CC2)C1N has a pIC50 (second compound 0.1 µM) of 8.75, a pIC50 (second compound 0.316 µM) of 9.36 and a pIC50 (second compound 1 µM) greater than 10.00. The pIC50 (second compound 3.16 µM) was greater than 10.00, the pIC50 (second compound 10 µM) was greater than 10.00 and the viability, T/C (second compound 0.1 µM, first compound 0.0001 µM) was 80.7%. The viability, T/C [1] was 72.3%, the viability, T/C [2] was 56.4% and the viability, T/C [3] was 41.8%. It also gave a viability, T/C [4] of 35%, a viability, T/C [5] of 25.8% and a viability, T/C (second compound 0.316 µM, first compound 0.0001 µM) of 63.1%. It also gave a viability, T/C [6] of 53.3%, a viability, T/C [7] of 41.7% and a viability, T/C [8] of 34.9%. The viability, T/C [9] was 27.1%, the viability, T/C [10] was 20.4% and the viability, T/C (second compound 1 µM, first compound 0.0001 µM) was 47.3%. For the same compound, the viability, T/C [11] was 40%, the viability, T/C [12] was 33.6% and the viability, T/C [13] was 25.6%. For the same compound, the viability, T/C [14] was 20.4%, the viability, T/C [15] was 17.1% and the viability, T/C (second compound 3.16 µM, first compound 0.0001 µM) was 29%. It also gave a viability, T/C [16] of 27.8%, a viability, T/C [17] of 21.7% and a viability, T/C [18] of 17.4%. It also gave a viability, T/C [19] of 18.8%, a viability, T/C [20] of 17.8% and a viability, T/C (second compound 10 µM, first compound 0.0001 µM) of 29%. For the same compound, the viability, T/C [21] was 26.3%, the viability, T/C [22] was 19.7% and the viability, T/C [23] was 17.7%. It also gave a viability, T/C [24] of 14.8% and a viability, T/C [25] of 15.9%.
With `CC(C)n1nc(-c2ccc3oc(N)nc3c2)c2c(N)ncnc21` + CC1OCC2(CCN(c3cnc(Sc4ccnc(N)c4Cl)c(N)n3)CC2)C1N the pIC50 (second compound 0.1 µM) was 8.91, the pIC50 (second compound 0.316 µM) was greater than 9.50 and the pIC50 (second compound 1 µM) was greater than 9.50. The pIC50 (second compound 3.16 µM) was greater than 9.50, the pIC50 (second compound 10 µM) was greater than 9.50 and the viability, T/C [1] was 77%. For the same compound, the viability, T/C [2] was 52.3%, the viability, T/C [3] was 36.2% and the viability, T/C [4] was 26.7%. For the same compound, the viability, T/C [5] was 18.1%, the viability, T/C [26] was 13.7% and the viability, T/C [6] was 46.2%. The viability, T/C [7] was 42.1%, the viability, T/C [8] was 31.8% and the viability, T/C [9] was 21%. It also gave a viability, T/C [10] of 12.4%, a viability, T/C [27] of 5.7% and a viability, T/C [11] of 47.9%. It also gave a viability, T/C [12] of 35.9%, a viability, T/C [13] of 26.8% and a viability, T/C [14] of 15.6%. The viability, T/C [15] was 7.51%, the viability, T/C [28] was 2.03% and the viability, T/C [16] was 36.2%. For the same compound, the viability, T/C [17] was 27%, the viability, T/C [18] was 21.4% and the viability, T/C [19] was 10.4%. For the same compound, the viability, T/C [20] was 4.33%, the viability, T/C [29] was 1.32% and the viability, T/C [21] was 28.1%. The viability, T/C [22] was 22.7%, the viability, T/C [23] was 15.6% and the viability, T/C [24] was 6.84%. It also gave a viability, T/C [25] of 1.96% and a viability, T/C [30] of 0.92%.
In the case of `CC1(C)CCC(CN2CCN(c3ccc(C(=O)NS(=O)(=O)c4ccc(NCC5CCOCC5)c([N+](=O)[O-])c4)c(Oc4cnc5[nH]ccc5c4)c3)CC2)=C(c2ccc(Cl)cc2)C1` + CC1OCC2(CCN(c3cnc(Sc4ccnc(N)c4Cl)c(N)n3)CC2)C1N, the pIC50 (second compound 0.1 µM) was 5.86, the pIC50 (second compound 0.316 µM) was 5.97 and the pIC50 (second compound 1 µM) was greater than 7.50. It also gave a pIC50 (second compound 3.16 µM) greater than 7.50, a pIC50 (second compound 10 µM) greater than 7.50 and a viability, T/C [5] of 81.6%. The viability, T/C [26] was 74.7%, the viability, T/C (second compound 0.1 µM, first compound 0.316 µM) was 78% and the viability, T/C (second compound 0.1 µM, first compound 1 µM) was 65.3%. The viability, T/C (second compound 0.1 µM, first compound 3.16 µM) was 10.1%, the viability, T/C (second compound 0.1 µM, first compound 10 µM) was 3.29% and the viability, T/C [10] was 56.9%. It also gave a viability, T/C [27] of 63.4%, a viability, T/C (second compound 0.316 µM, first compound 0.316 µM) of 49.9% and a viability, T/C (second compound 0.316 µM, first compound 1 µM) of 53%. It also gave a viability, T/C (second compound 0.316 µM, first compound 3.16 µM) of 6.85%, a viability, T/C (second compound 0.316 µM, first compound 10 µM) of 2.39% and a viability, T/C [15] of 43.9%. For the same compound, the viability, T/C [28] was 45.9%, the viability, T/C (second compound 1 µM, first compound 0.316 µM) was 40.5% and the viability, T/C (second compound 1 µM, first compound 1 µM) was 34%. The viability, T/C (second compound 1 µM, first compound 3.16 µM) was 5.15%, the viability, T/C (second compound 1 µM, first compound 10 µM) was 1.19% and the viability, T/C [20] was 37.3%. It also gave a viability, T/C [29] of 32.7%, a viability, T/C (second compound 3.16 µM, first compound 0.316 µM) of 26.6% and a viability, T/C (second compound 3.16 µM, first compound 1 µM) of 20.2%. The viability, T/C (second compound 3.16 µM, first compound 3.16 µM) was 4.11%, the viability, T/C (second compound 3.16 µM, first compound 10 µM) was 1.21% and the viability, T/C [25] was 24.6%. It also gave a viability, T/C [30] of 24.5%, a viability, T/C (second compound 10 µM, first compound 0.316 µM) of 25.4% and a viability, T/C (second compound 10 µM, first compound 1 µM) of 20.9%. The viability, T/C (second compound 10 µM, first compound 3.16 µM) was 2.63% and the viability, T/C (second compound 10 µM, first compound 10 µM) was 0.27%.
